Read-outs that look alike come from different tables or passages of the source.
Tests used:
[1] = tested on: SARS-CoV-2; details: for host cell viability, normalized to remdesivir alone (5 μM) / host cell viability (in words): infected Vero E6, 72 hours
[2] = tested on: SARS-CoV-2 virus [B.1.351]; type: in vivo, mice; details: day 4
[3] = tested on: SARS-CoV-2; type: cell-based; details: remdesivir alone, dose-dependent; control around 10^6 TCID50/mL
[4] = tested on: SARS-CoV-2; assay: microbe, parasite or virus in culture
[5] = tested on: SARS-CoV-2 virus [B.1.351]; type: in vivo, mice

Cc1cc(O)c2c(=O)c3c(O)cc(O)c4c5c(O)cc(O)c6c(=O)c7c(O)cc(C)c8c1c2c(c34)c(c78)c65 [Hypericin]
host cell viability, normalized to remdesivir alone (5 μM) ([1]; hypericin 1.563 μM, remdesivir 0 μM): 14.6%
host cell viability, normalized to remdesivir alone (5 μM) ([1]; hypericin 3.125 μM, remdesivir 0 μM): 12.9%
host cell viability, normalized to remdesivir alone (5 μM) ([1]; hypericin 6.25 μM, remdesivir 0 μM): 12.8%
host cell viability, normalized to remdesivir alone (5 μM) ([1]; hypericin 12.5 μM, remdesivir 0 μM): 20.4%
host cell viability, normalized to remdesivir alone (5 μM) ([1]; hypericin 25 μM, remdesivir 0 μM): 62.0%
host cell viability, normalized to remdesivir alone (5 μM) ([1]; hypericin 50 μM, remdesivir 0 μM): 62.6%
host cell viability, normalized to remdesivir alone (5 μM) ([1]; hypericin 100 μM, remdesivir 0 μM): 38.0%
host cell viability (in words) ([1]; hypericin (25-50 μM) alone): modest improvements in host cell viability
host cell viability ([1]; hypericin alone, 12.5-50 μM): 20-62%
mice in which all infectious titers in lung were eliminated ([2]; Hypericin 20 mg/kg, pre-treatment from two days prior to infection): 5 out of 7

CCC(CC)COC(=O)[C@H](C)N[P@](=O)(OC[C@H]1O[C@@](C#N)(c2ccc3c(N)ncnn23)[C@H](O)[C@@H]1O)Oc1ccccc1 [Remdesivir]
viral titer of SARS-CoV-2 [3]: zero
viability at 5 µM ([4]; Severe acute respiratory syndrome coronavirus 2, Vero C1008, 72 h, read-out: host cell viability, normalized to remdesivir alone (5 μM)): 100%
viability at 1.25 µM ([4]; Severe acute respiratory syndrome coronavirus 2, Vero C1008, read-out: host cell viability): 26%
infectious titers in lung, in words ([5]; remdesivir 25 mg/kg daily intraperitoneally, day 4 post infection): strongest antiviral effect in reducing infectious titer
infectious titers in lung (plaque forming unit per mg of tissues), in words ([5]; remdesivir 5, 10 or 25 mg/kg daily intraperitoneally from day 1 post infection, day 4): dose-dependent effect on reducing infectious titers
host cell viability, normalized to remdesivir alone (5 μM) ([1]; hypericin 0 μM, remdesivir 0.3125 μM): 19.8%
host cell viability, normalized to remdesivir alone (5 μM) ([1]; hypericin 0 μM, remdesivir 0.625 μM): 21.9%
host cell viability, normalized to remdesivir alone (5 μM) ([1]; hypericin 0 μM, remdesivir 1.25 μM): 25.2%
host cell viability, normalized to remdesivir alone (5 μM) ([1]; hypericin 0 μM, remdesivir 2.5 μM): 38.1%
host cell viability (in words) ([1]; remdesivir (5 μM) alone): dose-dependently improved host cell viability
infectious titers in lung compared to vehicle, in words ([2]; Remdesivir 10 mg/kg daily from day 1 post infection): did not impact infectious titers compared to vehicle
mice in which all infectious titers in lung were eliminated ([2]; Remdesivir 25 mg/kg daily from day 1 post infection): 4 out of 7

Reference: US20250375398A1
